This passage reports IC50 results from ChEMBL document CHEMBL6083231, “AANAT kinetics of CoASH-targeted electrophiles of tryptamine and related analogs” (Bioorg Med Chem Lett, 2024).

Assay [1] deals with T1, Serotonin N-acetyltransferase (Homo sapiens, UniProt Q16613). Kind of assay: Inhibition of AANAT (unknown origin).
Assay [2] has as its target T1, Serotonin N-acetyltransferase. Briefly: Inhibition of human AANAT.

pIC50: −log10 of the molar value.

T1 sequence (Q16613 whole entry): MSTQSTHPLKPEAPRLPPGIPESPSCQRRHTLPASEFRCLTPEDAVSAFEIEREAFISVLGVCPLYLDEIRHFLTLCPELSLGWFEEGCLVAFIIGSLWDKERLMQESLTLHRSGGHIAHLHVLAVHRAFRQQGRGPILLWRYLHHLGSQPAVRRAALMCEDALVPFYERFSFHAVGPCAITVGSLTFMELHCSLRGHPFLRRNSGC

In assay [1], `O=C(CBr)NCCc1c[nH]c2ccccc12` had a negative logarithm of the IC50 (pIC50) of 6.30.
`O=C(CCl)NCCc1c[nH]c2ccccc12` showed a pIC50 in assay [1] of 5.28.
As to `C=CC(=O)NCCc1csc2ccc(OC)cc12`, the pIC50 in assay [2] was 4.60.

Usually pIC50 stands for the IC50 on a negative log10 scale, so that one unit is a factor of ten.
